Laboratory results published in article PMC7363035 (ACS infectious diseases, 2020).
Where two headings read alike, the source gives them in different places. Marks after values point to notes of the source that are not given here.

How the values were obtained:
[1] = Mouse pharmacokinetics after a single oral dose; type: in vivo
[2] = Mouse liver microsome; type: in vitro ADME; settings: mouse liver microsomes; data generated via Medicines for Malaria Venture
[3] = Log D in octanol/PBS pH 7.4; type: physicochemical
[4] = Solubility in PBS pH 7.4; type: physicochemical
[5] = system: P. berghei; settings: cited from earlier work
[6] = cited from earlier work
[7] = cited from earlier work; remark: listed apart in the source
[8] = human liver microsomes; cited from earlier work
[9] = single dose of 50 mg/kg by oral gavage, male CD-1 mice
[10] = male, CD-1, mouse, plasma, po, 50 mg/kg

SMILES | fold lower systemic exposure than 8c or 8n ([1]; mouse PK study with oral dosing) | AUClast [1, 9] | Cmax [1, 9] | Tmax [1, 9] | MLM CLint [2] | MLM T1/2 [2] | Log D in octanol/PBS; pH 7.4 ([3]; data generated via Medicines for Malaria Venture) | Solubility in PBS pH 7.4 [4] | effective single dose in the P. berghei model ([5]; single dose) | AUC(0-t) [1, 10] | Tmax [1, 10] | logD [3] | Solubility in PBS pH 7.4 [6] | Log D in octanol/PBS; pH 7.4 [7] | cures ([5]; Experiment 1, PO 6 mg/kg/day (4 days), female Swiss Webster mice, cured = parasitemia undetectable at day 30) | HLM CLint [8] | HLM T1/2 [8]
O=C(O[C@@H]1CCC[C@]2(C1)OOC1(O2)C2CC3CC(C2)CC1C3)N1CCNCC1 (stereo partly drawn) [8e, (1R,3”R)-Dispiro[adamantane-2,3’-[1,2,4]trioxolane-5’,1”-cyclohexan]-3”-yl piperazine-1-carboxylate] | ~ three-fold | 1070 ± 127 ng·h/mL | 223 ± 25 ng/mL | 2 h | 321 µL/min/mg | 4.3 min | 3.25 | 157.0 μM | – | – | – | – | – | – | – | – | –
c1cc([C@H]2CC[C@]3(CC2)OO[C@]2(O3)C3CC4CC(C3)CC2C4)ccc1OCCN1CCOCC1 [OZ439, artefenomel] | – | – | – | – | – | – | – | – | 20 mg/kg | 52600 ± 4810 ng·h/mL | 2 h | 5.81 | 0.181^b μM | 5.5 | – | – | –
CC(C)(N)CNC(=O)C[C@H]1CC[C@]2(CC1)OO[C@]1(O2)C2CC3CC(C2)CC1C3 [OZ277, arterolane] | – | – | – | – | – | – | – | – | – | – | – | – | 504 μM | – | 4/5 | <7 µL/min/mg | >1 h
